# Where a name gives a salt, the structure may show the parent alone.
# Legend:
# [1] = test system: P. yoelii sporozoites (265 BY strain); test: Challenge of mice with P. yoelii sporozoites, parasitemia in blood smears; type: in vivo; conditions: Swiss mice, 5,000 sporozoites IV; for reduction of parasitemia with respect to controls: after 12 days
# Description: All animal were kept and used in accordance with institutional guidelines and European regulations. Female 6-week-old Swiss mice (René Janvier, Le Genest-Saint-Isle, France) weighing 24-31 g were randomly allotted to all groups.
# The drugs tested were administered intra-peritoneally (IP). Monensin (MN) (Monensin A sodium salt, ref. M5273, Sigma) was diluted in PBS-methanol 2% and Nigericin (NG) (Nigericin sodium salt, ref. N7143, Sigma), another polyether ionophore antibiotic, in PBS-DMSO 2%.
# The drugs were administrated on days −1, 0, +1, +2 (+40 h), and the mice challenged on day 0 by intravenous injection of 5,000 P. yoelii sporozoites (265 BY strain).
# Group 1 received 25 mg/kg/day of MN and group 2 received PBS-methanol 2%. These groups received the drug and the solvent from day −1. Group 3 received 25 mg/kg/day of MN and group 4 received PBS-methanol 2% from day 0 post-infection. Group 5 received 35 mg/kg/day of NG and group 6 received PBS-DMSO 2% from day −1. Group 7 and 8 received 35 mg/kg/day of NG and PBS-DMSO 2% respectively from day 0 post-infection.
# All groups were challenged with 5,000 sporozoites at day 0. Parasites were enumerated by blinded microscopic examination of Giemsa-stained tail-blood smears collected at day 3 until day 9, day 12 and day 15 post-infection. A mouse was considered negative when no parasites could be observed in 20,000 red blood cells (50 fields under a 50× light microscope objective) on any day during the period of observation.
# [2] = test system: pre-erythrocytic development stage of P. yoelii; test: Real-time PCR quantification of the liver stage parasite burden; type: in vivo; conditions: mice, 25 mg/kg IP on days 0 and +1; 2.5×10^5 sporozoites IV; liver 40 h post-infection
# Description: MN was administered IP on days 0 and day +1. Group 1 received 25 mg/kg of MN, whereas the control groups received the MN solvent (PBS-Methanol 2%). Mice were then challenged on day 0 by intra-venous injection with 2.5×10^5 P. yoelii sporozoites and sacrificed 40 h post-infection.
# A piece of liver (0.2 g) was harvested and total RNA extracted using the Micro to Midi Kit (Invitrogen, France) according to the manufacturer's instructions and treated with Dnase Turbo DNA free (Ambion, France). Five micrograms of total RNA was reverse transcribed by Superscript II (Invitrogen) and an equivalent of 100 ng RNA was used for each TaqMan® PCR reactions on a MX4000 multiplex quantitative PCR system (Stratagene, France).
# Mouse β-actin primers (forward […] (SEQ ID NO: 4), reverse […] (SEQ ID NO: 5); Invitrogen) and probe (HEX-[…]-BHQ2 (SEQ ID NO: 6); MWG biotech) were used for normalisation.
# P. yoelii 18S rRNA and mouse β-actin PCR fragments were cloned into plasmids and used in a 10-fold dilution series to determine a standard curve.
# Absolute transcript copy number for each gene was calculated based on the external standard curve. Quantitative parasite burden was expressed as the ratio between absolute copy numbers of P. yoelii 18S ribosomal cDNA and mouse β-actin cDNA to account for experimental differences. TaqMan® test sample and plasmid standards were done in quadruplet.
# P. yoelii sporozoites [3] = test: Sporozoite migration assay (HepG2CD81 cells, FITC-dextran, flow cytometry); type: cell-based; conditions: all concentrations (5 μM, 5 nM and 5 picomolar); 2 h at 37° C.; vs untreated sporozoites
# Description: P. yoelii sporozoites treated with three concentrations (5 μM, 5 nM and 5 picomolar) of MN were incubated with HepG2CD81 cells for 2 h at 37° C. in the continued presence of with 0.5 mg/ml FITC-dextran. After 2 h at 37° C., cells were washed and fixed with PBS-formaldehyde 1%, and FITC-positive cells were counted by flow cytometry.
# P. yoelii sporozoites [4] = test: Invasion assay, first experiment: pre-treatment of sporozoites, then hepatocytes, EEF count; type: cell-based; conditions: washed, 48 h with hepatocytes
# Description: Two experiments were performed.
# The first experiment consisted in pre-treatment of P. yoelii sporozoites with MN at 5 pM, 0.5 μM, or 5 μM, for 1 h at room temperature then washed and added to hepatocytes. Sporozoites controls were pre-treated with medium alone and incubated 1 h at room temperature in the same conditions. Parasites were then incubated with hepatocytes for 48 h at 37° C. in 5% CO2, stained, and examined microscopically to determine the quantity of exo-erythrocytic forms (EEF) (Basco et al., 1999; Mahmoudi et al., 2003).
# P. yoelii sporozoites [5] = test: Invasion assay, second experiment: infecting hepatocytes with sporozoites in the presence of MN, EEF count; type: cell-based; conditions: all concentrations (50 pM, 1 μM, 10 μM) present for 3 h during infection, then 45 h culture
# Description: The second experiment consisted in infecting hepatocytes with sporozoites in the presence of MN at 50 pM, 1 μM, or 10 μM. After 3 h of incubation, MN was eliminated and the cultures were maintained 45 h at 37° C. in 5% CO2.
# The cultures were stained and the quantity of exo-erythrocytic forms (EEF) was determined microscopically.
# P. yoelii sporozoites [6] = test: Maturation assay: hepatocyte cultures infected with sporozoites, then treated; type: cell-based; conditions: all concentrations (50 pM, 1 μM, 10 μM) for 45 h after 3 h infection and washing
# Description: The experiment consisted in infecting hepatocytes cultures with P. yoelii sporozoites for 3 h, washing the cultures and then treating them with MN 50 pM, 1 μM, or 10 μM, for 45 h at 37° C.
# P. yoelii blood stage = test: Blood stage infection of mice with P. yoelii-infected red blood cells; type: in vivo; conditions: 25 mg/kg at day-3, day-2, day-1 before infection
# Description: Two groups of mice were treated at day-3, day-2 and day-1 before infection with MN (25 mg/kg) or solvent (PBS-Methanol-2%). At day 0 the mice were inoculated IP with 4×10^5 P. yoelii-infected red blood cells. From day 3 post-infection, an enumeration of parasites in blood smears was conducted until day 10 post-infection.
# [7] = test system: P. yoelii oocysts in Anopheles stephensi; test: Transmission to mosquito: oocysts in Anopheles stephensi midguts fed on treated mice; type: in vivo; conditions: Anopheles stephensi fed 2 hours on MN treated mice; 30 midguts dissected 8 days later
# Description: The mice of the MN treated group and the control group of Example 3 were anesthetized and placed for 2 hours over a cage with 100 female laboratory-bred Anopheles stephensi. Oocysts were enumerated in 30 mosquito midguts dissected 8 days later.
structure (smiles),measurement,setting,value
"CO[C@@H]1C[C@@H](C[C@H]2CC[C@H](C)[C@H]([C@@H](C)C(=O)O)O2)O[C@]2(O[C@](C)([C@H]3CC[C@@](C)([C@@H]4O[C@@H]([C@H]5O[C@@](O)(CO)[C@H](C)C[C@@H]5C)C[C@@H]4C)O3)C[C@H]2C)[C@@H]1C [NG, Nigericin sodium salt, reference compound]",reduction of parasitemia with respect to controls,[1]; 35 mg/kg/day IP daily for 3 days (treated),51%
same,reduction of parasitemia with respect to controls,[1]; 35 mg/kg/day IP daily for 4 days (pretreated),71%
"CC[C@@]1([C@H]2O[C@H]([C@H]3O[C@@](O)(CO)[C@H](C)C[C@@H]3C)C[C@H]2C)CC[C@H]([C@@]2(C)CC[C@]3(C[C@H](O)[C@@H](C)[C@@H]([C@H](C)[C@H](OC)[C@@H](C)C(=O)[O-])O3)O2)O1.[Na+] [MN, Monensin A sodium salt]",protection from erythrocytic infection (mice with no parasite in blood smears),"[1]; 25 mg/kg/day IP daily for 3 days (treated, from day 0)",100 % of the mice
same,protection from erythrocytic infection (mice with no parasite in blood smears),"[1]; 25 mg/kg/day IP daily for 4 days (pre-treated, from day -1)",100 % of the mice
same,"inhibition on parasite development (liver parasite burden, 18S rRNA/β-actin)",[2],96.8%
same,inhibition of sporozoites migration,P. yoelii sporozoites [3],93%
same,inhibition of parasite development (EEF),P. yoelii sporozoites [4]; sporozoites pre-treated 1 h with 5 pM,96.26%
same,inhibition of parasite development (EEF),P. yoelii sporozoites [4]; sporozoites pre-treated 1 h with 0.5 μM,complete inhibition
same,inhibition of parasite development (EEF),P. yoelii sporozoites [4]; sporozoites pre-treated 1 h with 5 μM,complete inhibition
same,inhibition of parasite development (EEF),P. yoelii sporozoites [5],totally inhibited parasite development
same,inhibition of parasite development,P. yoelii sporozoites [6],completely inhibited parasite development
same,parasitemia course,"P. yoelii blood stage; 4×10^5 infected red blood cells IP, blood smears day 3-10","Increasing parasitemia, although delayed by comparison with the control group"
same,male gametocytes in blood,P. yoelii blood stage; vs untreated group,no male gametocytes were observed
same,oocysts in mosquito midguts,[7],No oocyst could be observed

# Source: patent US20110124723A1, “Compounds for Preventing and Treating Plasmodium Infections” (UNIVERSITE PIERRE ET MARIE CURIE (PARIS 6), priority 2007, published 2011)
